Like-named read-outs stand apart in the source and are kept apart here.

The subject of data set [1] is MPXV strain MOH-NRC-0002/2022, clade II lineage A.2.1.
The test system is the same in data set [2]. The data set is described as follows: in vitro. Particulars: African green monkey, SI (selectivity safety index = CC50/IC50).
The next data set can be described thus: in vitro. Particulars: African green monkey.
For data set [3], the system named is MPXV strain MOH-NRC-0002/2022, clade II lineage A.2.1. In words: microbe, parasite or virus in culture. Particulars: Monkeypox virus.
Data set [4] relates to clade I or clade II MPXV infection. The following applies: human, in vivo; cited from earlier work.
Data set [5] concerns MPXV lineage responsible for the 2022 outbreak. The following applies: in vivo; cited from earlier work.
Data set [6] has as its system Zr-599 and Liberia strains of MPXV. The following applies: cited from earlier work.

Turning to `Cc1cn([C@H]2C[C@H](N=[N+]=[N-])[C@@H](CO)O2)c(=O)[nH]c1=O` [Zidovudine], in data set [1], the “antiviral activity against MPXV (in words)” value (from here on “antiviral activity”) is “limited activity”. Also, the selectivity ratio in data set [2] was 2.29. The CC50 in “in vitro” turned out to be 282 µM. Also, the midpoint of inhibition in data set [3] (Vero C1008, 72 h), the IC50, lay at 123 µM.

Regarding `CCC(CC)COC(=O)[C@H](C)N[P@](=O)(OC[C@H]1O[C@@](C#N)(c2ccc3c(N)ncnn23)[C@H](O)[C@@H]1O)Oc1ccccc1` [Remdesivir], the CC50 in the data set “in vitro” was determined as 503 µM. The half-inhibitory concentration (IC50) (as a rule, the point on the concentration scale where inhibition reaches its midpoint) in data set [3] (Vero C1008, 72 h) came out at 10 µM.

On to `O=C(NN1C(=O)[C@@H]2[C@@H]3C=C[C@@H]([C@H]4C[C@@H]34)[C@@H]2C1=O)c1ccc(C(F)(F)F)cc1` [Tecovirimat], for which, in data set [4], the lesion resolution time entry is “did not reduce lesion resolution time” and the “safety in randomized clinical trials” value was “safe”. For the same compound, the survival rates entry in data set [5] is reported as “enhanced the survival rates”.

Regarding `CC(C)[C@H](N)C(=O)OCCOCn1cnc2c(=O)[nH]c(N)nc21` [Valaciclovir], the selectivity ratio in data set [2] is 5.42. The compound also returned a CC50 in the data set “in vitro” of 404 µM. In data set [3] (Vero C1008, 72 h), this compound registered a half-inhibitory concentration (IC50) of 74.4 µM.

On to `Cc1ccnc2c1NC(=O)c1cccnc1N2C1CC1` [Nevirapine], for which the selectivity ratio in data set [2] worked out at 2.61. This compound registered a CC50 in the data set “in vitro” of 277 µM. This compound also came in with an IC50 in data set [3] (Vero C1008, 72 h) of 106 µM.

On to `COC[C@H]1C[C@@H](c2ncc(-c3ccc4c(c3)COc3cc5c(ccc6nc([C@@H]7CC[C@H](C)N7C(=O)[C@@H](NC(=O)OC)C(C)C)[nH]c65)cc3-4)[nH]2)N(C(=O)[C@H](NC(=O)OC)c2ccccc2)C1` [Velpatasvir], for which the selectivity ratio in data set [2] is 0.95. Further, the CC50 in “in vitro” turned out to be 316 µM. This compound showed a half-maximal inhibitory concentration (IC50) in data set [3] (Vero C1008, 72 h) of 332 µM.

On to `Nc1nc(NC2CC2)c2ncn([C@H]3C=C[C@@H](CO)C3)c2n1` [Abacavir], for which the selectivity ratio in data set [2] stood at 5.46. The compound further displayed a CC50 in “in vitro” of 328 µM. For the same compound, the IC50 in data set [3] (Vero C1008, 72 h) is 60.1 µM.

`CC(C)[C@H](N)C(=O)OCC(CO)OCn1cnc2c(=O)nc(N)[nH]c21` (stereo partly shown) [Valganciclovir]: the selectivity ratio in data set [2] stood at 5.36. The same compound yielded a CC50 in the data set “in vitro” of 494 µM. In data set [3] (Vero C1008, 72 h), this compound had a 50% inhibitory concentration (IC50) of 92 µM.

For Tenofovir disoproxil, in data set [1], 67.2 µM corresponded to half-maximal inhibition (IC50) and the “SI (selectivity safety index = CC50/IC50)” value is reported as 4.50. Moreover, the CC50 with Vero-E6 cells amounted to 302 µM.

With `CCOC(=O)C1=C[C@@H](OC(CC)CC)[C@H](NC(C)=O)[C@@H](N)C1` [Oseltamivir], in data set [2], the selectivity ratio is 4.6. The CC50 in the data set “in vitro” came out at 369 µM; in the data set on Vero-E6 cells (African green monkey), 269 µM. In data set [3] (Vero C1008, 72 h), this compound came in with an IC50 of 58.5 µM.

Regarding `NC12CC3CC(CC(C3)C1)C2` [Amantadine], in data set [1] (African green monkey), the “SI (selectivity safety index = CC50/IC50)” value is recorded as 15.22. Moreover, the selectivity ratio in data set [2] stood at 15.2. The same compound had a CC50 in the data set “in vitro” of 570 µM. This compound returned an IC50 in data set [3] (Vero C1008, 72 h) of 37.5 µM.

As to `CCN(CC)CCCC(C)Nc1ccnc2cc(Cl)ccc12` (stereo not shown) [Chloroquine], the selectivity ratio in data set [2] was 2.47. Also, the CC50 in the data set “in vitro” was found to be 253 µM. For the same compound, the half-maximal inhibitory concentration (IC50) in data set [3] (Vero C1008, 72 h) worked out at 102 µM.

Turning to `C[C@@H]1CCO[C@H]2Cn3cc(C(=O)NCc4ccc(F)cc4F)c(=O)c(O)c3C(=O)N12` [Dolutegravir], in data set [1], the “antiviral activity” value is recorded as “moderate antiviral activity”. The selectivity ratio in data set [2] stood at 7.82. Also, in “in vitro”, the CC50 is 160 µM. Besides, it took 20.5 µM to reach half-maximal inhibition in data set [3] (Vero C1008, 72 h) (IC50).

With `NC(=O)c1ncn([C@@H]2O[C@H](CO)[C@@H](O)[C@H]2O)n1` [Ribavirin], the selectivity ratio in data set [2] was found to be 1.83. In the data set “in vitro”, this compound had a CC50 of 262 µM. The compound also displayed an IC50 in data set [3] (Vero C1008, 72 h) of 144 µM.

The compound `Nc1nc2c(ncn2COCCO)c(=O)[nH]1` [Acyclovir] showed a CC50 in the data set “in vitro” of 332 µM.

For the compound `CC(C)OC(=O)[C@H](C)N[P@](=O)(OC[C@H]1O[C@@H](n2ccc(=O)[nH]c2=O)[C@](C)(F)[C@@H]1O)Oc1ccccc1` [Sofosbuvir], the selectivity ratio in data set [2] came out at 0.61. This compound came in with a CC50 in “in vitro” of 286 µM. In addition, in data set [3] (Vero C1008, 72 h), the IC50 was determined as 470 µM.

Consider `Nc1nc2c(ncn2CCC(CO)CO)c(=O)[nH]1` [Penciclovir], for which the selectivity ratio in data set [2] worked out at 3.95. This compound returned a CC50 in “in vitro” of 280 µM. Besides, the 50% inhibitory concentration (IC50) in data set [3] (Vero C1008) was 70.9 µM; in data set [3] (Vero C1008, 72 h), 70.8 µM.

In the case of `CCN(CCO)CCCC(C)Nc1ccnc2cc(Cl)ccc12` (stereo not shown) [Hydroxychloroquine], the “antiviral activity” value in data set [1] is given as “moderate antiviral activity”. Also, the selectivity ratio in data set [2] was determined as 7.41. The compound further registered a CC50 in the data set “in vitro” of 296 µM. For the same compound, the IC50 in data set [3] (Vero C1008, 72 h) was found to be 39.9 µM.

Turning to `C=C1[C@H](CO)[C@@H](O)C[C@@H]1n1cnc2c(=O)[nH]c(N)nc21` [Entecavir], in data set [1], the “antiviral activity” value was “moderate anti-Mpox activity”. Moreover, the selectivity ratio in data set [2] is 12. This compound displayed a CC50 in “in vitro” of 336 µM. Also, the IC50 in data set [3] (Vero C1008, 72 h) was 28.1 µM.

For the compound `Nc1ccn([C@@H]2CS[C@H](CO)O2)c(=O)n1` [Lamivudine], the CC50 in the data set “in vitro” came to 410 µM.

As to `CC(C)C(=O)OC[C@H]1O[C@@H](n2ccc(NO)nc2=O)[C@H](O)[C@@H]1O` [Molnupiravir], the half-maximal inhibitory concentration (IC50) in data set [1] was 5.73 µM; in data set [3] (Vero C1008, 72 h), 5.7 µM; in data set [6] it was roughly 5.2 µM. Besides, the “antiviral activity” value in data set [1] is recorded as “moderate anti-Mpox activity”. The compound also yielded a CC50 in “in vitro” of 111 µM.

As for `NC(=O)c1nc(F)c[nH]c1=O` [Favipiravir], the selectivity ratio in data set [2] was found to be 3.41. For the same compound, the CC50 in “in vitro” was 283 µM. The compound also registered a concentration for half-maximal inhibition (IC50) in data set [3] (Vero C1008, 72 h) of 82.8 µM.

`CC(=O)N[C@H]1[C@H]([C@H](O)[C@H](O)CO)OC(C(=O)O)=C[C@@H]1N=C(N)N` [Zanamivir]: in data set [2], the selectivity ratio worked out at 1.9. This compound yielded a CC50 in the data set “in vitro” of 359 µM. The compound further showed a 50% inhibitory concentration (IC50) in data set [3] (Vero C1008, 72 h) of 189 µM.

In the case of `COC(=O)N[C@H](C(=O)N1CCC[C@H]1c1nc(-c2ccc(-c3ccc(-c4c[nH]c([C@@H]5CCCN5C(=O)[C@@H](NC(=O)OC)C(C)C)n4)cc3)cc2)c[nH]1)C(C)C` [Daclatasvir], in data set [2], the selectivity ratio amounted to 1.99. Also, the CC50 in the data set “in vitro” turned out to be 386 µM. This compound showed a half-inhibitory concentration (IC50) in data set [3] (Vero C1008, 72 h) of 194 µM.
